A short description of data set [1]: Oral bioavailability in rat at 10 mg/kg. In kind it is ADME, organism-based. Particulars: in vivo.
The nature of data set [2]: AUC (0 to infinity) in rat at 10 mg/kg, po. The class given is ADME, organism-based. On the set-up: time infinity, dose 10 mg/kg, route oral. The settings on record: plasma.
A short description of data set [3]: Cmax in rat at 10 mg/kg, po. The settings on record: in vivo. On the set-up: dose 10 mg/kg, route oral. The class given is ADME, organism-based.
Data set [4] in a line: Apparent permeability in MDCK cells. In kind it is ADME, cell-based, Canis lupus familiaris. Particulars: dog.
Data set [5] can be described thus: Solubility of the compound at pH 6.8. In kind it is physicochemical. Particulars: buffer.
Data set [6] is described as follows: Solubility of the compound in water. The class given is physicochemical.

Converted amounts (≈) assume the structure as drawn.

Compound `O=C(O)c1csc(-n2nc(-c3ccccc3)c3ccc(C(F)(F)F)cc32)n1` gave a bioavailability in data set [1] of 31%. For the same compound, the total exposure AUC(0-inf) in data set [2] came out at 9.27 µM·h. The maximum concentration (Cmax) in data set [3] came to 5.34 µM. The Papp in data set [4] is 17.8 ×10⁻⁶ cm/s. Also, the solubility in data set [5] stood at 123 µg/mL (≈ 316 µM); in data set [6], 37 µg/mL (≈ 95 µM).

The term bioavailability denotes dose-corrected exposure relative to a reference, in per cent. As usually defined, the AUC(0-inf) is the area under the concentration-time curve extrapolated to infinity. A low value points to less exposure. The Cmax is the highest concentration seen after dosing. Usually Papp stands for a coefficient for how fast a substance crosses the barrier. In general, solubility refers to how much of the substance goes into solution per volume.

The values above are taken from ChEMBL document CHEMBL3124785, “Discovery of 2-(1H-indazol-1-yl)-thiazole derivatives as selective EP(1) receptor antagonists for treatment of overactive bladder by core structure replacement” (Bioorg Med Chem Lett, 2014).
